In patent publication US9695155B2, “Herbicidal substituted pyrimidinyloxy benzene compounds” (E. I. DU PONT DE NEMOURS AND COMPANY, priority 2013, dated 2017):

Columns and labels:
ragweed [1] = experiment: Test A postemergence; type: in vivo, Ambrosia elatior; conditions: 0 to 100 scale, 0 no effect, 100 complete control
In short: (§1)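 Compounds in non-phytotoxic solvent with surfactant applied as soil spray preemergence, or postemergence to plants 2-10 cm at one- to two-leaf stage, in loam/sand. After approximately 10 days in greenhouse, injury rated visually versus untreated controls, 0 (no effect) to 100 (complete control).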

morningglory = experiment: Test C preemergence; type: in vivo, Ipomoea coccinea; conditions: for Morningglory plant response rating: preemergence
In short: (§2)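 Rated visually on 0–100 (100 = complete control) after 13–15 days under glass. Treatments went onto freshly seeded loam/sand soil or onto emerged plants at the 1- to 4-leaf stage, using a surfactant-containing solvent formulation.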

kochia [2] = experiment: Test A postemergence; type: in vivo, Kochia scoparia; conditions: 0 to 100 scale, 0 no effect, 100 complete control
In short: as §1

barnyardgrass [3] = experiment: Test C postemergence; type: in vivo, Echinochloa crus-galli
In short: as §2

yellow nutsedge = experiment: Test C postemergence; type: in vivo, Cyperus esculentus
In short: as §2

kochia [4] = experiment: Test A preemergence; type: in vivo, Kochia scoparia
In short: as §1

wheat, winter [5] = experiment: Test C postemergence; type: in vivo, Triticum aestivum
In short: as §2

ragweed [6] = experiment: Test C postemergence; type: in vivo, Ambrosia elatior
In short: as §2

velvetleaf = experiment: Test C preemergence; type: in vivo, Abutilon theophrasti; conditions: for Velvetleaf plant response rating: preemergence
In short: as §2

soybean = experiment: Test C preemergence; type: in vivo, Glycine max; conditions: for Soybean plant response rating: preemergence
In short: as §2

corn = experiment: Test A postemergence; type: in vivo, Zea mays; conditions: 0 to 100 scale, 0 no effect, 100 complete control
In short: as §1

galium = experiment: Test C postemergence; type: in vivo, Galium aparine
In short: as §2

barnyardgrass [7] = experiment: Test A postemergence; type: in vivo, Echinochloa crus-galli; conditions: 0 to 100 scale, 0 no effect, 100 complete control
In short: as §1

wild oat = experiment: Test C postemergence; type: in vivo, Avena fatua
In short: as §2

waterhemp = experiment: Test C postemergence; type: in vivo, Amaranthus rudis
In short: as §2

Italian ryegrass = experiment: Test C preemergence; type: in vivo, Lolium multiflorum; conditions: for Ryegrass, Italian plant response rating: preemergence
In short: as §2

wheat, winter [8] = experiment: Test C preemergence; type: in vivo, Triticum aestivum; conditions: for Wheat plant response rating: preemergence
In short: as §2

[9] = 16 g ai/ha, scale 0 to 100 (0 no effect, 100 complete control)
[10] = 125 g ai/ha, scale 0 (no effect) to 100 (complete control)
[11] = Preemergence, 62 g ai/ha, scale 0 to 100, 0 no effect, 100 complete control
[12] = 16 g ai/ha, postemergence, 0 is no effect, 100 is complete control
[13] = 31 g ai/ha, postemergence, visual rating, scale 0 to 100 (0 no effect, 100 complete control), 13 to 15 days
[14] = 125 g ai/ha, postemergence, visual rating, scale 0 to 100 (0 no effect, 100 complete control)
[15] = Postemergence, 62 g ai/ha, scale 0 to 100 (0 no effect, 100 complete control), 13 to 15 days

FC(F)Oc1cnn(-c2c(Cl)cccc2Oc2ncc(Cl)cn2)c1 [Compound 258]
Plant response rating, Ragweed (ragweed [1]; 31 g ai/ha): 10
Plant response rating, Ragweed (ragweed [1]; 125 g ai/ha): 50
Morningglory plant response rating (morningglory; [9]): 10
Morningglory plant response rating (morningglory; [10]): 98
Plant response rating, Morningglory (morningglory; [11]): 45
Plant response rating, Kochia (kochia [2]; 31 g ai/ha): 90
Plant response rating, Kochia (kochia [2]; 125 g ai/ha): 100
Plant response rating (0 to 100), Barnyardgrass (barnyardgrass [3]; [12]): 5
Barnyardgrass plant response rating (barnyardgrass [3]; [13]): 10
Plant response rating, Barnyardgrass (barnyardgrass [3]; [14]): 10
Plant response rating, Barnyardgrass (barnyardgrass [3]; [15]): 10
Plant response rating (0 to 100), Nutsedge, Yellow (yellow nutsedge; [12]): 0
Nutsedge, Yellow plant response rating (yellow nutsedge; [13]): 0
Plant response rating, Nutsedge, Yellow (yellow nutsedge; [14]): 5
Plant response rating, Nutsedge, Yellow (yellow nutsedge; [15]): 5
Plant response rating, Kochia (kochia [4]; 31 g ai/ha, 0 to 100 scale where 0 is no effect and 100 is complete control, visual, approximately 10 days): 90
Kochia plant response rating (0 to 100 scale) (kochia [4]; 125 g ai/ha): 90
Plant response rating (0 to 100), Wheat (wheat, winter [5]; [12]): 0
Wheat plant response rating (wheat, winter [5]; [13]): 0
Plant response rating, Wheat (wheat, winter [5]; [14]): 5
Plant response rating, Wheat (wheat, winter [5]; [15]): 5
Plant response rating (0 to 100), Ragweed (ragweed [6]; [12]): 25
Ragweed plant response rating (ragweed [6]; [13]): 50
Plant response rating, Ragweed (ragweed [6]; [14]): 75
Plant response rating, Ragweed (ragweed [6]; [15]): 50
Velvetleaf plant response rating (velvetleaf; [9]): 80
Velvetleaf plant response rating (velvetleaf; [10]): 100
Plant response rating, Velvetleaf (velvetleaf; [11]): 100
Soybean plant response rating (soybean; [9]): 35
Soybean plant response rating (soybean; [10]): 95
Plant response rating, Soybean (soybean; [11]): 75
Plant response rating, Corn (corn; 31 g ai/ha): 10
Plant response rating, Corn (corn; 125 g ai/ha): 40
Plant response rating (0 to 100), Galium (galium; [12]): 85
Galium plant response rating (galium; [13]): 90
Plant response rating, Galium (galium; [14]): 100
Plant response rating, Galium (galium; [15]): 95
Plant response rating, Barnyardgrass (barnyardgrass [7]; 31 g ai/ha): 10
Plant response rating, Barnyardgrass (barnyardgrass [7]; 125 g ai/ha): 90
Plant response rating (0 to 100), Oat, Wild (wild oat; [12]): 5
Oat, Wild plant response rating (wild oat; [13]): 5
Plant response rating, Oat, Wild (wild oat; [14]): 15
Plant response rating, Oat, Wild (wild oat; [15]): 10
Plant response rating (0 to 100), Waterhemp (waterhemp; [12]): 65
Waterhemp plant response rating (waterhemp; [13]): 70
Plant response rating, Waterhemp (waterhemp; [14]): 90
Plant response rating, Waterhemp (waterhemp; [15]): 80
Ryegrass, Italian plant response rating (Italian ryegrass; [9]): 0
Ryegrass, Italian plant response rating (Italian ryegrass; [10]): 70
Plant response rating, Ryegrass, Italian (Italian ryegrass; [11]): 25
Wheat plant response rating (wheat, winter [8]; [9]): 0
Wheat plant response rating (wheat, winter [8]; [10]): 25
Plant response rating, Wheat (wheat, winter [8]; [11]): 5
